Laboratory results from the supplement of paper PMC11061612.
Values belong to the compound of their own block, whether it stands above or below them.

Legend:
Assay in all cases: combination Emax (second highest fraction inhibited in the dose matrix, 72 h); higher = more inhibition; extreme values may be limits of the assay
NCI-H2369 (Mesothelioma) = test system: NCI-H2369 (Mesothelioma)
Outline: (§1)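 After 24 hours at 37°C and 5% CO2 in 1536-well plates, cells in DMEM/F12 or RPMI plus 10% FBS received two-drug dose matrices for 72 hours. Viability came from CellTiter-Glo 2.0 luminescence and was scaled as inhibition, anchored at 0 by vehicle wells and at 1 by blank wells. Combination Emax is taken as the second-highest inhibition in the matrix, and Bliss excess as the observed combination effect less EA + EB − EA·EB, with EA and EB the single-agent effects.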

[1] = test system: SW756 (Cervical Carcinoma)
Outline: as §1

[2] = test system: HT-29 (Colorectal Carcinoma)
Outline: as §1

[3] = test system: LS-513 (Colorectal Carcinoma)
Outline: as §1

[4] = test system: CTV-1 (T-Lymphoblastic Leukemia)
Outline: as §1

[5] = test system: COR-L95 (Small Cell Lung Carcinoma)
Outline: as §1

[6] = test system: NCI-H1793 (Lung Adenocarcinoma)
Outline: as §1

[7] = test system: SW780 (Bladder Carcinoma)
Outline: as §1

[8] = test system: KATOIII (Gastric Carcinoma)
Outline: as §1

IGR-1 (Melanoma) = test system: IGR-1 (Melanoma)
Outline: as §1

NCI-H2595 (Mesothelioma) = test system: NCI-H2595 (Mesothelioma)
Outline: as §1

[9] = test system: SNU-C5 (Colorectal Carcinoma)
Outline: as §1

[10] = test system: DB (B-Cell Non-Hodgkin's Lymphoma)
Outline: as §1

[11] = test system: SW1783 (Low Grade Glioma)
Outline: as §1

[12] = test system: G-292-Clone-A141B1 (Osteosarcoma)
Outline: as §1

[13] = test system: HPAC (Pancreatic Carcinoma)
Outline: as §1

[14] = test system: KM-H2 (Hodgkin's Lymphoma)
Outline: as §1

CAL-78 (Chondrosarcoma) = test system: CAL-78 (Chondrosarcoma)
Outline: as §1

[15] = test system: MDA-MB-157 (Breast Carcinoma)
Outline: as §1

[16] = test system: DOV13 (Ovarian Carcinoma)
Outline: as §1

SMILES: COc1cccc(OCCCN)c1-c1cc(Nc2cnc(C#N)cn2)n[nH]1 [Prexasertib] + O=C(c1cc(Cc2n[nH]c(=O)c3ccccc23)ccc1F)N1CCN(C(=O)C2CC2)CC1 [Olaparib] (first compound max 1 µM, 7x7, partner max 10 µM)
combination Emax (NCI-H2369 (Mesothelioma)): 0.283
combination Emax [1]: 0.456
combination Emax [2]: 0.84
combination Emax [3]: 0.781
combination Emax [4]: 0.821
combination Emax [5]: 0.682
combination Emax [6]: 0.532
combination Emax [7]: 0.23
combination Emax [8]: 0.431
combination Emax (IGR-1 (Melanoma)): 0.566
combination Emax (NCI-H2595 (Mesothelioma)): 0.23
combination Emax [9]: 0.776
combination Emax [10]: 0.687
combination Emax [11]: 0.508
combination Emax [12]: 0.3
combination Emax [13]: 0.593
combination Emax [14]: 0.877
combination Emax (CAL-78 (Chondrosarcoma)): 0.565
combination Emax [15]: 0.938
combination Emax [16]: 0.962

SMILES: CN(CCO)CC[C@H](CSc1ccccc1)Nc1ccc(S(=O)(=O)NC(=O)c2ccc(N3CCC([C@@H](O)c4ccccc4-c4ccc(Cl)cc4)CC3)cc2)cc1S(=O)(=O)C(F)(F)F [AZD4320] + C[C@@H]1COCCN1C2=NC(=NC(=C2)C3(CC3)[S@](=N)(=O)C)C4=C5C=CNC5=NC=C4 [AZD6738] (first compound max 1 µM, 7x7, partner max 10 µM)
combination Emax (NCI-H2369 (Mesothelioma)): 0.324
combination Emax [1]: 0.381
combination Emax [2]: 0.936
combination Emax [3]: 0.821
combination Emax [4]: 0.822
combination Emax [5]: 1
combination Emax [6]: 0.498
combination Emax [7]: 0.506
combination Emax [8]: 0.474
combination Emax (IGR-1 (Melanoma)): 0.969
combination Emax (NCI-H2595 (Mesothelioma)): 0.214
combination Emax [9]: 0.854
combination Emax [10]: 0.959
combination Emax [11]: 0.669
combination Emax [12]: 0.754
combination Emax [13]: 0.897
combination Emax [14]: 0.909
combination Emax (CAL-78 (Chondrosarcoma)): 0.861
combination Emax [15]: 0.94
combination Emax [16]: 0.974

SMILES: Cc1c2c(nn1C)CSCc1cc(n(C)n1)CSc1cc(c3ccccc3c1)OCCCc1c(C(=O)O)n(C)c3c-2c(Cl)ccc13 [AZD5991] + Cn1cnc2c(F)c(Nc3ccc(Br)cc3Cl)c(C(=O)NOCCO)cc21 [Selumetinib] (first compound max 1 µM, 7x7, partner max 3 µM)
combination Emax (NCI-H2369 (Mesothelioma)): 0.151
combination Emax [1]: 0.336
combination Emax [2]: 0.706
combination Emax [3]: 0.796
combination Emax [4]: 0.187
combination Emax [5]: 0.306
combination Emax [6]: 0.244
combination Emax [7]: 0.333
combination Emax [8]: 0.178
combination Emax (IGR-1 (Melanoma)): 0.622
combination Emax (NCI-H2595 (Mesothelioma)): 0.283
combination Emax [9]: 0.456
combination Emax [10]: 1
combination Emax [11]: 0.211
combination Emax [12]: 0.221
combination Emax [13]: 0.673
combination Emax [14]: 0.191
combination Emax (CAL-78 (Chondrosarcoma)): 0.717
combination Emax [15]: 0.641
combination Emax [16]: 0.252

Second part, led by results:

combination Emax [14]: 0.814
SMILES: Cc1c2c(nn1C)CSCc1cc(n(C)n1)CSc1cc(c3ccccc3c1)OCCCc1c(C(=O)O)n(C)c3c-2c(Cl)ccc13 [AZD5991] + C[C@@H]1COCCN1C2=NC(=NC(=C2)C3(CC3)[S@](=N)(=O)C)C4=C5C=CNC5=NC=C4 [AZD6738] (first compound max 1 µM, 7x7, partner max 10 µM)
combination Emax (NCI-H2369 (Mesothelioma)): 0.247
combination Emax [1]: 0.283
combination Emax [2]: 0.836
combination Emax [3]: 0.752
combination Emax [4]: 0.781
combination Emax [5]: 0.638
combination Emax [6]: 0.488
combination Emax [7]: 0.255
combination Emax [8]: 0.373
combination Emax (IGR-1 (Melanoma)): 0.852
combination Emax (NCI-H2595 (Mesothelioma)): 0.299
combination Emax [9]: 0.795
combination Emax [10]: 0.999
combination Emax [11]: 0.441
combination Emax [12]: 0.281
combination Emax [13]: 0.683
combination Emax (CAL-78 (Chondrosarcoma)): 0.796
combination Emax [15]: 0.966
combination Emax [16]: 0.926

combination Emax [14]: 0.209
SMILES: Cc1cc2ncnn2cc1Nc1ncc2c(n1)n(C1CCOCC1)c(=O)n2C [AZD7648] + CCN(CCO)CCCOc1ccc2c(Nc3cc(CC(=O)Nc4cccc(F)c4)[nH]n3)ncnc2c1 [AZD2811] (first compound max 10 µM, 7x7, partner max 1 µM)
combination Emax (NCI-H2369 (Mesothelioma)): 0.235
combination Emax [1]: 0.108
combination Emax [2]: 0.265
combination Emax [3]: 0.507
combination Emax [4]: 0.375
combination Emax [5]: 0.256
combination Emax [6]: 0.26
combination Emax [7]: 0.29
combination Emax [8]: 0.263
combination Emax (IGR-1 (Melanoma)): 0.0874
combination Emax (NCI-H2595 (Mesothelioma)): 0.203
combination Emax [9]: 0.295
combination Emax [10]: 0.601
combination Emax [11]: 0.293
combination Emax [12]: 0.291
combination Emax [13]: 0.155
combination Emax (CAL-78 (Chondrosarcoma)): 0.335
combination Emax [15]: 0.234
combination Emax [16]: 0.426

combination Emax [14]: 0.924
SMILES: COc1cccc(OCCCN)c1-c1cc(Nc2cnc(C#N)cn2)n[nH]1 [Prexasertib] + Cc1cc2ncnn2cc1Nc1ncc2c(n1)n(C1CCOCC1)c(=O)n2C [AZD7648] (first compound max 1 µM, 7x7, partner max 10 µM)
combination Emax (NCI-H2369 (Mesothelioma)): 0.253
combination Emax [1]: 0.489
combination Emax [2]: 0.861
combination Emax [3]: 0.848
combination Emax [4]: 0.966
combination Emax [5]: 0.644
combination Emax [6]: 0.432
combination Emax [7]: 0.26
combination Emax [8]: 0.526
combination Emax (IGR-1 (Melanoma)): 0.508
combination Emax (NCI-H2595 (Mesothelioma)): 0.159
combination Emax [9]: 0.886
combination Emax [10]: 0.766
combination Emax [11]: 0.473
combination Emax [12]: 0.295
combination Emax [13]: 0.816
combination Emax (CAL-78 (Chondrosarcoma)): 0.586
combination Emax [15]: 0.961
combination Emax [16]: 0.914

combination Emax [14]: 0.513
SMILES: NC1(C(=O)N[C@@H](CCO)c2ccc(Cl)cc2)CCN(c2ncnc3[nH]ccc23)CC1 [Capivasertib] + CC(=O)c1c(C)c2cnc(Nc3ccc(N4CCNCC4)cn3)nc2n(C2CCCC2)c1=O [Palbociclib] (first compound max 10 µM, 7x7, partner max 10 µM)
combination Emax (NCI-H2369 (Mesothelioma)): 0.259
combination Emax [1]: 0.389
combination Emax [2]: 0.577
combination Emax [3]: 0.675
combination Emax [4]: 0.897
combination Emax [5]: 0.172
combination Emax [6]: 0.361
combination Emax [7]: 0.248
combination Emax [8]: 0.311
combination Emax (IGR-1 (Melanoma)): 0.831
combination Emax (NCI-H2595 (Mesothelioma)): 0.214
combination Emax [9]: 0.567
combination Emax [10]: 0.728
combination Emax [11]: 0.407
combination Emax [12]: 0.333
combination Emax [13]: 0.589
combination Emax (CAL-78 (Chondrosarcoma)): 0.542
combination Emax [15]: 0.24
combination Emax [16]: 0.588
